Read-outs that look alike come from different tables or passages of the source.
Target: MhuD (Mycobacterium tuberculosis, UniProt P9WKH3)
Assay: biochemical
Format: binding

Sequence of MhuD (P9WKH3 whole entry): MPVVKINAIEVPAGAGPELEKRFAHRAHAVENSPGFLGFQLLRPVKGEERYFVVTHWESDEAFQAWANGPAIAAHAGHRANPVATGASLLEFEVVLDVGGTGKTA

Row | Compound | Kd [nM] | Kd (read-out: αBV Kd) [nM]
1 | C=CC1=C(C)C2=Cc3c(C=C)c(C)c4[n]3[Fe][n]3c(c(C)c(CCC(=O)O)c3=CC3=NC(=C4)C(C)=C3CCC(=O)O)=CC1=N2 [heme] | 6 ± 2.9 | 
2 | C=CC1=C(C)/C(=C/c2[nH]c(/C=C3N=C(/C=C4\NC(=O)C(C)=C4C=C)C(C)=C\3CCC(=O)O)c(CCC(=O)O)c2C)NC1=O [αBV, biliverdin IXα] |  | 36.4 ± 2.1

Source: article PMC7045704 (Biochemistry, 2019)
